Data from publication PMC4503722, “Novel Phenotypic Outcomes Identified for a Public Collection of Approved Drugs from a Publicly Accessible Panel of Assays” (PLoS ONE, 2015).
Like-named read-outs stand apart in the source and are kept apart here.

How the values were obtained:
SNU-C1 = test: cells; assay type: cell-based
HT-29 = test: cells; assay type: cell-based
Colo320 = test: cells; assay type: cell-based
[1] = test system: endothelial tube formation in co-cultures of ECFCs and ADSCs treated with VEGF; test: cells; assay type: cell-based, human
[2] = test system: ECFC/ADSC co-culture cell nuclei number
HeLa cells = test: cells; assay type: cell-based
DLD-1 = test: cells; assay type: cell-based
RKO = test: cells; assay type: cell-based
SW480 = test: cells; assay type: cell-based
HCT116 = test: cells; assay type: cell-based
STC-1 cell line = assay type: cell-based, mouse
NCI-H716 cells = test: cells; assay type: cell-based, Human
[3] = test system: HCT116 cells treated with a GSK3β inhibitor; test: cells; assay type: cell-based; details: for GSK3b inh pretreated_Viability ATP HCT116 IC50/EC50: assay number 26, GSK3b inhibitor pretreated

In the case of `CCc1oc2ccccc2c1C(=O)c1cc(Br)c(O)c(Br)c1` [NCGC00013895-08], the “Basal_Viability ATP SNU-C1 IC50/EC50” value (SNU-C1) is reported as 0.1053 µM, the “Basal_Viability ATP HT-29 IC50/EC50” value (HT-29) is reported as 1.1416 µM and the “Basal_Viability ATP Colo 320 IC50/EC50” value (Colo320) is reported as > 20 µM. The “VEGF_ADSC\ECFC Angio CD31 TubeArea IC50/EC50” value [1] was > 10 µM, the “VEGF_ADSC\ECFC Angio Hoechst NucArea IC50/EC50” value [2] was > 10 µM and the “Hela CellCycMod PI 2N IC50/EC50” value (HeLa cells) was > 10 µM. For the same compound, the “Hela CellCycMod PI 4N IC50/EC50” value (HeLa cells) was > 10 µM, the “Hela CellCycMod PI Cell Number IC50/EC50” value (HeLa cells) was > 10 µM and the “Hela CellCycMod PI MI IC50/EC50” value (HeLa cells) was > 10 µM. For the same compound, the “Hela CellCycMod PI S Phase IC50/EC50” value (HeLa cells) was > 10 µM, the “Basal_Viability ATP DLD-1 IC50/EC50” value (DLD-1) was 0.2675 µM and the “Basal_Viability ATP RKO IC50/EC50” value (RKO) was 0.1312 µM. For the same compound, the “Basal_Viability ATP SW480 IC50/EC50” value (SW480) was 1.7408 µM, the “Basal_Viability ATP HCT116 IC50/EC50” value (HCT116) was 1.057 µM and the “mSTC-1 GLP1 Secretion IC50/EC50” value (STC-1 cell line) was > 40 µM. The “hNCI-H716 GLP1 Secretion IC50/EC50” value (NCI-H716 cells) was > 40 µM.

`C[C@@H]1CN(CCCn2c3ccccc3c3ccccc32)C[C@H](C)N1` [NCGC00025187-02] was tested, and the “Basal_Viability ATP SNU-C1 IC50/EC50” value (SNU-C1; assay number 30, basal) was 6.023 µM, the “Basal_Viability ATP HT-29 IC50/EC50” value (HT-29; assay number 28, basal) was 4.021 µM and the “Basal_Viability ATP Colo 320 IC50/EC50” value (Colo320; assay number 27, basal) was 15.9001 µM. The “GSK3b inh pretreated_Viability ATP HCT116 IC50/EC50” value [3] was 3.848 µM, the “Basal_Viability ATP DLD-1 IC50/EC50” value (DLD-1; assay number 23, basal) was 9.7994 µM and the “Basal_Viability ATP RKO IC50/EC50” value (RKO; assay number 29, basal) was 2.184 µM. For the same compound, the “Basal_Viability ATP SW480 IC50/EC50” value (SW480; assay number 24, basal) was 2.353 µM, the “Basal_Viability ATP HCT116 IC50/EC50” value (HCT116; assay number 25, basal) was 10.5492 µM and the “mSTC-1 GLP1 Secretion IC50/EC50” value (STC-1 cell line; assay number 13) was > 40 µM. The “hNCI-H716 GLP1 Secretion IC50/EC50” value (NCI-H716 cells; assay number 12) was 6.3711 µM.

In the case of `O=C(Nc1ccc(Oc2ccc(Cl)cc2)c(Cl)c1)c1cc(I)cc(I)c1O` [NCGC00160556-02], the “Basal_Viability ATP SNU-C1 IC50/EC50” value (SNU-C1) is reported as 0.0143 µM, the “Basal_Viability ATP HT-29 IC50/EC50” value (HT-29) is reported as 0.0095 µM and the “Basal_Viability ATP Colo 320 IC50/EC50” value (Colo320) is reported as 0.054 µM. The “VEGF_ADSC\ECFC Angio CD31 TubeArea IC50/EC50” value [1] was > 10 µM, the “VEGF_ADSC\ECFC Angio Hoechst NucArea IC50/EC50” value [2] was 6.571 µM and the “Basal_Viability ATP DLD-1 IC50/EC50” value (DLD-1) was 0.0084 µM. The “Basal_Viability ATP RKO IC50/EC50” value (RKO) was 0.0303 µM, the “Basal_Viability ATP SW480 IC50/EC50” value (SW480) was 0.0108 µM and the “Basal_Viability ATP HCT116 IC50/EC50” value (HCT116) was 0.01695 µM. For the same compound, the “mSTC-1 GLP1 Secretion IC50/EC50” value (STC-1 cell line) was 1.3019 µM and the “hNCI-H716 GLP1 Secretion IC50/EC50” value (NCI-H716 cells) was > 40 µM.

With `COCC(=O)O[C@]1(CCN(C)CCCc2nc3ccccc3[nH]2)CCc2cc(F)ccc2[C@@H]1C(C)C` [NCGC00161420-06] the “Basal_Viability ATP SNU-C1 IC50/EC50” value (SNU-C1; assay number 30) was 5.4372 µM, the “Basal_Viability ATP HT-29 IC50/EC50” value (HT-29; assay number 28) was 3.0782 µM and the “Basal_Viability ATP Colo 320 IC50/EC50” value (Colo320; assay number 27) was 10.5076 µM. For the same compound, the “VEGF_ADSC\ECFC Angio CD31 TubeArea IC50/EC50” value [1] was > 10 µM, the “VEGF_ADSC\ECFC Angio Hoechst NucArea IC50/EC50” value [2] was > 10 µM and the “GSK3b inh pretreated_Viability ATP HCT116 IC50/EC50” value [3] was 5.3311 µM. For the same compound, the “Basal_Viability ATP DLD-1 IC50/EC50” value (DLD-1; assay number 23) was 7.2629 µM, the “Basal_Viability ATP RKO IC50/EC50” value (RKO; assay number 29) was 6.7187 µM and the “Basal_Viability ATP SW480 IC50/EC50” value (SW480; assay number 24) was 4.5426 µM. The “Basal_Viability ATP HCT116 IC50/EC50” value (HCT116; assay number 25, basal) was 12.3743 µM, the “mSTC-1 GLP1 Secretion IC50/EC50” value (STC-1 cell line; assay number 13) was 8.237 µM and the “hNCI-H716 GLP1 Secretion IC50/EC50” value (NCI-H716 cells; assay number 12) was > 40 µM.

For `OCCN1CCN(CC/C=C2/c3ccccc3Sc3ccc(C(F)(F)F)cc32)CC1` [NCGC00162179-08], the “IC50/EC50, Basal_Viability ATP SNU-C1 (assay number 30)” value (SNU-C1; basal) was 1.035 µM, the “IC50/EC50, Basal_Viability ATP HT-29 (assay number 28)” value (HT-29; basal) was 1.808 µM and the “IC50/EC50, Basal_Viability ATP Colo 320 (assay number 27)” value (Colo320; basal) was 2.3138 µM. The “IC50/EC50, GSK3b inh pretreated_Viability ATP HCT116 (assay number 26)” value ([3]; GSK3b inh pretreated) was 2.894 µM, the “IC50/EC50, Basal_Viability ATP DLD-1 (assay number 23)” value (DLD-1; basal) was 1.467 µM and the “IC50/EC50, Basal_Viability ATP RKO (assay number 29)” value (RKO; basal) was 0.3178 µM. The “IC50/EC50, Basal_Viability ATP SW480 (assay number 24)” value (SW480; basal) was 3.928 µM, the “IC50/EC50, Basal_Viability ATP HCT116 (assay number 25)” value (HCT116; basal) was 4.577 µM and the “IC50/EC50, mSTC-1 GLP1 Secretion (assay number 13)” value (STC-1 cell line; concentration response) was > 40 µM. For the same compound, the “IC50/EC50, hNCI-H716 GLP1 Secretion (assay number 12)” value (NCI-H716 cells; concentration response) was 32.1555 µM.
